“Also recorded” adds a separate entry of the source.
Key:
[1] = Evaluation of retinal penetration of NACA: NACA and NAC levels in plasma, aqueous, vitreous and retina after NACA in drinking water; format: in vivo, mice (rd10/rd10 and wild type C57/BL6); details: for concentration at 7 days: mouse, retina, oral, 20 mg/mL in drinking water, 20 mg/mL NACA in drinking water, P28 to P35, estimated dose 60-80 mg/day; for mean levels in the retina compared with plasma / measurability in the retina: animals treated with NACA; for measurability in the retina: N=20 eyes per strain; for measurements in aqueous, vitreous and retina: nearly all measurements, limit of quantification of the assay
Experimental: Animals and Treatments. Mice were treated in accordance with the recommendations of the Association for Research in Vision and Ophthalmology. Litters of homozygous rd10/rd10 mice (B6.CXB1-Pde6brd10/J) and wild type C57/BL6 mice (The Jackson Laboratory, Bar Harbor, Me.) were used for these studies.
Starting on post-natal day 28 (P28), animals were given normal drinking water (n=10 for each strain) or water containing 20 mg/ml NACA (n=10 for each strain).
Analysis of NACA and NAC. Upon sacrifice of the mice on P35, retina, aqueous, vitreous and plasma were collected, weighed, and stabilized as quickly as possible and stored at −80° C. prior to shipment to AIT Bioscience, LLC (Indianapolis, Ind.). The bioanalytical method (BAM.0445.01) for the quantitation of total NAC NACA in K2EDTA was based on derivatization, protein precipitation extraction, and LC-MS/MS instrumental analysis. Any disulfides were reduced to free thiols and subsequently reacted with 2-chloro-1-methylpyridinium iodide (CMPI) to form stable thioethers. The thioether derivatives were detected by LC-MS/MS. Stable label isotope internal standards were used. The method covered a concentration range from 50.0 to 50,000 ng/mL. The thiol moiety of NAC, NACA, and their respective internal standards oxidizes quickly in plasma through formation of disulfides. In order to determine total NAC and total NACA levels in plasma, tris(2-carboxyethyl)phosphine (TCEP) is added during the extraction to reduce disulfide bonds. Ammonium bicarbonate is added to control sample pH near neutral, as TCEP will otherwise acidify the aliquoted samples and hinder derivatization. The free analyte is then derivatized to a stable thioether using 2-chloro-1-methylpyridinium iodide (CMPI). N-acetyl-L-cysteine is used as the reference standard. The assay would not discern the enantiomer, N-acetyl-D-cysteine, if present. A sample volume of 25.0 μL was aliquotted into a 1.2 mL 96-well plate to which was added, in sequence, 25.0 μL internal standard solution (1000 ng/mL NAC-D3 and 1000 ng/mL NACA-D3 in water), 50.0 μL of ammonium bicarbonate (100 mM), 5.0 μL CMPI (60 mM in water), and 5.0 μL of TCEP (60 mM in water). Samples were allowed to react for 30 minutes. To precipitate proteins, 500 μL of acetonitrile was then added to all samples. The plate was covered and the mixtures were shaken and centrifuged. A 50.0 μL aliquot of the supernatant was transferred from each well to a clean plate containing 400 μL of water-acetonitrile (25-75) in each well, and mixed well prior to LC-MS injection.
Samples were analyzed on a Waters Acquity liquid chromatograph interfaced with a Thermo Scientific TSQ Vantage triple quadrupole mass spectrometer with ESI ionization. Each extracted sample was injected (5.0 μL) onto a Waters BEH HILIC column (2.1×100 mm; 1.7 μm) equilibrated at 35° C. Mobile Phase A was ammonium formate (25 mM, pH 3.8). Mobile Phase B was acetonitrile. The LC gradient is tabled below: […]
Peak area ratios from the calibration standard responses were regressed using a (1/concentration^2) linear fit for N-Acetyl-L-Cysteine and N-Acetylcysteine amide.
Evaluation of Retinal Penetration of NACA. To determine retinal levels of NACA/NAC after administration of 20 mg/mL NACA in drinking water for 7 days. This experiment will provide rapid confirmation that NACA and/or NAC penetrate the retina following oral administration. This experiment will also evaluate if the breakdown in the blood-retinal barrier in RP affects the levels of NACA in the retina by comparing animals with RP to wild type mice.
Rd10 and C57BL/6 wild type mice will begin treatment at P28 and at P35 mice will be euthanized and plasma, vitreous and retina samples will be sent to AITB for determination of NAC and NACA levels. Experimental groups: (n=10/group). The research was performed in 3 discrete experiments: […]

[2] = humans, oral dose of 600 mg; cited from earlier work
diabetic rats = details: cited from earlier work
[3] = target: T1, glutamate cysteine ligase (GCL, EC 6.3.2.2) (Homo sapiens, UniProt P48506); details: substrate of GCL; read-out: apparent Km; cited from earlier work
T1 sequence (P48506 1-637): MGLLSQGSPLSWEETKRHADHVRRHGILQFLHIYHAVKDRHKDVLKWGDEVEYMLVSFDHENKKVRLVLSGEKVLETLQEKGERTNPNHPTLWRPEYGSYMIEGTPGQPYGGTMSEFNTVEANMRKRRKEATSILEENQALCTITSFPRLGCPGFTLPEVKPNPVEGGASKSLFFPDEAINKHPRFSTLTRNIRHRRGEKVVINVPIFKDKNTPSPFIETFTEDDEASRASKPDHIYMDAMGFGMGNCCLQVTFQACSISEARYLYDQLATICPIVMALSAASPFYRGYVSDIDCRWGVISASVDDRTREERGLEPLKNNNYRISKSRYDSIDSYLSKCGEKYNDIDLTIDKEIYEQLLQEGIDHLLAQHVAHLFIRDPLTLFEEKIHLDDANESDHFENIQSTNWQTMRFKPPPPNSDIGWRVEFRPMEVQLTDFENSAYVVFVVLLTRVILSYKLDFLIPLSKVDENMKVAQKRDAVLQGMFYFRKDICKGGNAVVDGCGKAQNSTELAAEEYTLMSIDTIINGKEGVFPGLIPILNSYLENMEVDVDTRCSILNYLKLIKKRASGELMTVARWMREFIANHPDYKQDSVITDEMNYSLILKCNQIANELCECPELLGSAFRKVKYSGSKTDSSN
T1 sequence (P48507 1-274 partner): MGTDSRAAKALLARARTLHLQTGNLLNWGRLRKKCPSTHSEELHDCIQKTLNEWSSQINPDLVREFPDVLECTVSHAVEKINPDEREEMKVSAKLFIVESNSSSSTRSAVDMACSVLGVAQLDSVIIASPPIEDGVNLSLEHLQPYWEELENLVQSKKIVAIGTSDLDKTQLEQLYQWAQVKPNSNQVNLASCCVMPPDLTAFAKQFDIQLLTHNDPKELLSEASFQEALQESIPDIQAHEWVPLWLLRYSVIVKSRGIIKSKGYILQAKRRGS

[4] = 20 mg/ml NACA in drinking water

mean levels in aqueous humor compared with plasma [1, 4]	concentration at 7 days ([1]; C57/BL6 (wild type), wild type mice) [ng/g]	mean concentration in the aqueous humor, rd10 compared with wild type ([1]; N=8 eyes rd10, N=10 C57/B16)	mean levels in the retina compared with plasma [1]	measurability in the retina [1]	mean NACA levels in plasma compared with NAC levels ([1]; both strains, 20 mg/ml NACA in drinking water, N=10 per strain)	measurements in aqueous, vitreous and retina [1]	concentration at 7 days ([1]; rd10/rd10 (B6.CXB1-Pde6brd10/J), rd10 mice) [ng/g]	Compound	mean levels in plasma, rd10 compared with wild type [1, 4]	ratio of NACA:NAC in the retina, rd10 compared with C57/B16 ([1]; oral NACA 20 mg/mL in drinking water)	time after administration at which no NAC is detectable [2] [h]	expression of VEGF and ICAM-1 (diabetic rats; after 5-month treatment)	up-regulation of VEGF and ICAM-1 expression in retinal blood vessels (diabetic rats)	reactive oxygen species contents in the retinas (diabetic rats; most significantly at 5 months)	retinal pathological changes (electron and light microscopy) (diabetic rats; sacrificed at 3 and 5 months)	Km [3] [µM]
lower than in plasma	~2400	higher in rd10 mice than wild type	higher than those observed in plasma	measurable in all animals	greater than the NAC levels	BLQ	~6500	CC(=O)N[C@@H](CS)C(N)=O	greater in rd10 mice than in the wild type	penetrated retina to a greater extent in rd10 mice than in C57/B16 mice; also recorded: greater in the retina of rd10 mice than in C57/B16 mice						
lower than in plasma			higher than those observed in plasma	measurable in all animals		BLQ		CC(=O)N[C@@H](CS)C(=O)O [NAC, N-acetyl-L-cysteine, reference compound]	greater in rd10 mice than in the wild type		10 to 12	returned to basal levels	attenuated	decreased reactive oxygen species	alleviated the pathological changes	
								N[C@@H](CS)C(=O)O [cysteine, L-cysteine]								100 to 300
